Assay results from doi:10.1101/2024.03.13.583470v1, “SARS-CoV-2 methyltransferase nsp10-16 in complex with natural and drug-like purine analogs for guiding structure-based drug discovery” (biorxiv, 2024).

Columns and labels:
nsp10-16 [1] = biological target: T1, nsp10-16 (Severe acute respiratory syndrome coronavirus 2, UniProt P0DTD1); test: X-ray crystallography, soaking; format: binding; conditions: SAM site, fully replaces SAM; 10 mM soak, pH 6.5
T1 construct: gene rep

nsp10-16 [2] = biological target: T1, nsp10-16; test: ITC or other biophysical method (nanoDSF, MST), not given; format: binding

Row | Structure (SMILES) | X-ray crystallography, soaking (nsp10-16 [1]) | KD (nsp10-16 [2])
1 | Nc1ncnc2c1ncn2[C@@H]1O[C@H](CO)[C@@H](O)[C@H]1O [adenosine] | electron density is observed in the adenosine cavity while SAM is fully replaced | –
2 | C[S+](CC[C@H](N)C(=O)O)C[C@H]1O[C@@H](n2cnc3c(N)ncnc32)[C@H](O)[C@@H]1O (some centres unmarked) [S-adenosyl methionine] | – | measurable binding of the tested ligands within the investigated ligand concentrations applied, except for
